Among the data in patent publication US9789096B2, “Methods and compositions for selective and targeted cancer therapy” (Board of Regents of the University of Texas System, priority 2013, dated 2017) are IC50 values, retold here.

In one experiment the test system is H2009. In words: Cell viability dose-response, H2009. The experiment is classed as cell-based, human. To be noted: Homo sapiens, NCI-H2009; 12-point dose-response starting at 50 micromolar, 3-fold increments, in duplicate; read-out: toxicity data, H2009. As to the method:
(§1) FIG. 6A. […] Cell viability is plotted vs. compound concentration. Compound was added to cells plated at 15% confluence in 96-well plates in RPMI-1640 media supplemented with 5% Fetal Bovine Serum and 2 mM L-Glutamine. After 4 days of incubation, ATP levels were measured using Cell Titer Glo (Promega). Data are presented as the average of 2 replicates ±SEM.
(§2) Selectivity may be measured by the half maximal inhibitory concentration (IC50), which, as used herein, is a measure of the effectiveness of a compound in killing cells. This quantitative measure indicates how much of a particular compound is needed to kill a particular cell population by half (e.g., as indicated by the amount of ATP). […] The IC50 can be determined by constructing a dose-response curve. The lower the IC50, the higher the potency, and the greater the difference between IC50 values for different cell lines (e.g., sensitive lines vs. insensitive lines, and sensitive lines vs. normal lines) the greater the selectivity. […]
(§3) With this information, we synthesized and tested a series of small molecules derived in conception from the oxalamide and chromone scaffold including N-acyl ureas, as shown in Tables 6-8. Each compound was tested in a 12-point dose-response study starting at 50 micromolar and decreasing in 3-fold increments to sub-nanomolar concentrations, in duplicate. Additionally, one or more additional cell line was tested in the same way.
Consider `COc1ccc(CCN(C)C(=O)NC(=O)c2ccc(C(=O)c3ccccc3)cc2)cc1` [SW208461-1-A], for which the IC50 was no less than 49.5 µM.
Same read-out and setting: as for `COc1ccc(CCCNC(=O)c2ccc(Cl)cc2)cc1` [SW208462-1-A], the figure is no less than 49.5 µM; as for `COc1ccc(CCNC(=O)c2ccc(Cl)cc2)cc1` [SW208463-1-A], no less than 49.5 µM.
Regarding `COc1ccc(CNC(=O)c2ccc(Cl)cc2)cc1` [SW208464-1-A], the IC50 is no less than 49.5 µM.
Take `COc1ccc(C(=O)Nc2ccc(C(=O)c3ccccc3)cc2)cc1` [SW208465-1-A]: the IC50 was no less than 49.5 µM.
Same read-out and setting: the result for `COc1ccc(CCC(=O)Nc2ccc(C(=O)c3ccccc3)cc2)cc1` [SW208466-1-A] reads no less than 49.5 µM; that for `COc1ccc(CCCC(=O)Nc2ccc(C(=O)c3ccccc3)cc2)cc1` [SW208470-1-A], 34.4 µM; that for `COc1ccc(CCCCC(=O)Nc2ccc(C(=O)c3ccccc3)cc2)cc1` [SW208480-1-A], no less than 49.5 µM.
`O=C(NCCc1ccc(O)cc1)NC(=O)c1ccc(COc2ccccc2)cc1` [SW208522-1-A]: the IC50 amounted to 0.01 µM.
The same measure, in the same setting: the result for `O=C(NCCc1ccc(O)cc1)NC(=O)c1ccc(Oc2ccccc2)cc1` [SW208523-1-A] reads 0.02 µM.
As to `O=C(NCCc1ccc(O)cc1)NC(=O)c1ccc(OCc2ccccc2)cc1` [SW208524-1-A], the IC50 amounted to 0.01 µM.
On to `COc1ccc(CCNC(=O)NC(=O)c2ccc(Nc3ccccc3)cc2)cc1` [SW208561-1-A], for which the IC50 was found to be 0.88 µM.
The same measure, in the same setting: the result for `O=C(NCCc1ccc(O)cc1)NC(=O)c1ccc(Nc2ccccc2)cc1` [SW208562-1-A] reads 0.01 µM; that for `COc1ccc(CCNC(=O)NC(=O)c2ccc(C(Cl)c3ccccc3)cc2)cc1` (stereo not shown) [SW208563-1-A], 0.99 µM; that for `COc1ccc(CCNC(=O)NC(=O)c2ccc(C(N)c3ccccc3)cc2)cc1` (stereo not shown) [SW208564-1-A], 5.62 µM.
Regarding `COc1ccc(CCNC(=O)NC(=O)c2ccc(O)cc2)cc1` [SW208565-1-A], the IC50 amounted to 5.9 µM.
With `COc1ccc(CCNC(=O)N(C)C(=O)c2ccc(C(=O)c3ccccc3)cc2)cc1` [SW208566-1-A], the IC50 is 10.3 µM.
The same measure, in the same setting: as for `COc1ccc(CCN(C)C(=O)N(C)C(=O)c2ccc(C(=O)c3ccccc3)cc2)cc1` [SW208567-1-A], the figure is 16.5 µM.
On to `COc1cccc(C(=O)c2ccc(C(=O)NC(=O)NCCc3ccc(O)cc3)cc2)c1` [SW208579-1-A], for which the IC50 is 0.42 µM.
Consider `COc1ccccc1C(=O)c1ccc(C(=O)NC(=O)NCCc2ccc(O)cc2)cc1` [SW208580-1-A], for which the IC50 was 2.14 µM.

The test system of another experiment is H2122. The experiment is described as follows: Cell viability dose-response, H2122. It counts as cell-based, human. The conditions noted are these: Homo sapiens, NCI-H2122, 12-point dose-response starting at 50 micromolar, 3-fold increments, in duplicate; read-out: toxicity data, H2122. In short, it runs like this: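 Viability read as total ATP (Cell Titer Glo) following 4 days' compound exposure, with IC50 derived from dose-response curves. Duplicate 12-point series, top concentration 50 micromolar with 3-fold steps, on cells seeded at 15% confluence in RPMI-1640, 5% FBS, 2 mM L-glutamine.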
Consider `COc1ccc(CCN(C)C(=O)NC(=O)c2ccc(C(=O)c3ccccc3)cc2)cc1` [SW208461-1-A], for which the IC50 turned out to be 8670 nM.
For the compound `COc1ccc(CCCNC(=O)c2ccc(Cl)cc2)cc1` [SW208462-1-A], the IC50 was no less than 49500 nM.
As for `COc1ccc(CCNC(=O)c2ccc(Cl)cc2)cc1` [SW208463-1-A], the IC50 was no less than 49500 nM.
For `COc1ccc(CNC(=O)c2ccc(Cl)cc2)cc1` [SW208464-1-A], the IC50 was no less than 49500 nM.
On to `COc1ccc(CCC(=O)Nc2ccc(C(=O)c3ccccc3)cc2)cc1` [SW208466-1-A], for which the IC50 was no less than 49500 nM.
Regarding `COc1ccc(CCCC(=O)Nc2ccc(C(=O)c3ccccc3)cc2)cc1` [SW208470-1-A], the IC50 was no less than 49500 nM.
In the case of `COc1ccc(CCCCC(=O)Nc2ccc(C(=O)c3ccccc3)cc2)cc1` [SW208480-1-A], the IC50 worked out at 2510 nM.
The same measure, in the same setting: as for `O=C(NCCc1ccc(O)cc1)NC(=O)c1ccc(COc2ccccc2)cc1` [SW208522-1-A], the figure is 10 nM; as for `O=C(NCCc1ccc(O)cc1)NC(=O)c1ccc(Oc2ccccc2)cc1` [SW208523-1-A], 20 nM; as for `O=C(NCCc1ccc(O)cc1)NC(=O)c1ccc(OCc2ccccc2)cc1` [SW208524-1-A], 20 nM.
With `COc1ccc(CCNC(=O)NC(=O)c2ccc(Nc3ccccc3)cc2)cc1` [SW208561-1-A], the IC50 was determined as 80 nM.
With `O=C(NCCc1ccc(O)cc1)NC(=O)c1ccc(Nc2ccccc2)cc1` [SW208562-1-A], the IC50 is 90 nM.
Same read-out and setting: the result for `COc1ccc(CCNC(=O)NC(=O)c2ccc(C(Cl)c3ccccc3)cc2)cc1` (stereo not shown) [SW208563-1-A] reads 60 nM.
The same measure, in the same setting: as for `COc1ccc(CCNC(=O)NC(=O)c2ccc(C(N)c3ccccc3)cc2)cc1` (stereo not shown) [SW208564-1-A], the figure is 320 nM.
As for `COc1ccc(CCNC(=O)NC(=O)c2ccc(O)cc2)cc1` [SW208565-1-A], the IC50 stood at 18000 nM.
With `COc1ccc(CCNC(=O)N(C)C(=O)c2ccc(C(=O)c3ccccc3)cc2)cc1` [SW208566-1-A], the IC50 was 6150 nM.
Still for that read-out and setting: as for `COc1ccc(CCN(C)C(=O)N(C)C(=O)c2ccc(C(=O)c3ccccc3)cc2)cc1` [SW208567-1-A], the figure is 15600 nM; as for `COc1cccc(C(=O)c2ccc(C(=O)NC(=O)NCCc3ccc(O)cc3)cc2)c1` [SW208579-1-A], 820 nM.
For `COc1ccccc1C(=O)c1ccc(C(=O)NC(=O)NCCc2ccc(O)cc2)cc1` [SW208580-1-A], the IC50 was 9460 nM.

The experiment is the same for the next values; noted with them: Homo sapiens, NCI-H2122, Table 9, competitor; read-out: IC50 to H2122 cells.
With `O=C(NCCc1ccc(O)cc1)NC(=O)c1ccc(COc2ccccc2)cc1` [SW208522-1-A], the IC50 was determined as 47.7 nM.
Same read-out and setting: as for `COc1ccc(CCNC(=O)NC(=O)c2ccc(Nc3ccccc3)cc2)cc1` [SW208561-1-A], the figure is 76.3 nM; as for `O=C(NCCc1ccc(O)cc1)NC(=O)c1ccc(Nc2ccccc2)cc1` [SW208562-1-A], 73.7 nM.
On the same count and under the same terms, the result for `COc1ccccc1C(=O)c1ccc(C(=O)NC(=O)NCCc2ccc(O)cc2)cc1` [SW208580-1-A] reads 800 nM.

Still in this experiment, the particulars now being: Homo sapiens, NCI-H2122, read-out: toxicity data, H2122.
For the compound `COc1ccc(C(=O)Nc2ccc(C(=O)c3ccccc3)cc2)cc1` [SW208465-1-A], the IC50 was no less than 49500 nM.

Another experiment deals with HCC44. The experiment is described as follows: Cell viability dose-response, HCC44. It counts as cell-based, human. The conditions noted are these: Homo sapiens, HCC44, 12-point dose-response starting at 50 micromolar, 3-fold increments, in duplicate; read-out: toxicity data, HCC44. As to the method:
as §1, §2, §3
For `COc1ccc(CCN(C)C(=O)NC(=O)c2ccc(C(=O)c3ccccc3)cc2)cc1` [SW208461-1-A], the IC50 was no less than 49500 nM.
On the same count and under the same terms, as for `COc1ccc(CCCNC(=O)c2ccc(Cl)cc2)cc1` [SW208462-1-A], the figure is no less than 49500 nM.
Take `COc1ccc(CCNC(=O)c2ccc(Cl)cc2)cc1` [SW208463-1-A]: the IC50 was no less than 49500 nM.
For `COc1ccc(CNC(=O)c2ccc(Cl)cc2)cc1` [SW208464-1-A], the IC50 was no less than 49500 nM.
On the same count and under the same terms, the result for `COc1ccc(C(=O)Nc2ccc(C(=O)c3ccccc3)cc2)cc1` [SW208465-1-A] reads no less than 49500 nM; that for `COc1ccc(CCC(=O)Nc2ccc(C(=O)c3ccccc3)cc2)cc1` [SW208466-1-A], no less than 49500 nM.
Same read-out and setting: the result for `COc1ccc(CCCC(=O)Nc2ccc(C(=O)c3ccccc3)cc2)cc1` [SW208470-1-A] reads 34800 nM.
Same read-out and setting: the result for `COc1ccc(CCCCC(=O)Nc2ccc(C(=O)c3ccccc3)cc2)cc1` [SW208480-1-A] reads 1410 nM; that for `O=C(NCCc1ccc(O)cc1)NC(=O)c1ccc(COc2ccccc2)cc1` [SW208522-1-A], 10 nM.
On to `O=C(NCCc1ccc(O)cc1)NC(=O)c1ccc(Oc2ccccc2)cc1` [SW208523-1-A], for which the IC50 came to 20 nM.
On the same count and under the same terms, as for `O=C(NCCc1ccc(O)cc1)NC(=O)c1ccc(OCc2ccccc2)cc1` [SW208524-1-A], the figure is 10 nM; as for `COc1ccc(CCNC(=O)NC(=O)c2ccc(Nc3ccccc3)cc2)cc1` [SW208561-1-A], 30 nM.
Take `O=C(NCCc1ccc(O)cc1)NC(=O)c1ccc(Nc2ccccc2)cc1` [SW208562-1-A]: the IC50 was found to be 12200 nM.
Turning to `COc1ccc(CCNC(=O)NC(=O)c2ccc(C(Cl)c3ccccc3)cc2)cc1` (stereo not shown) [SW208563-1-A], the IC50 turned out to be 30 nM.
Consider `COc1ccc(CCNC(=O)NC(=O)c2ccc(C(N)c3ccccc3)cc2)cc1` (stereo not shown) [SW208564-1-A], for which the IC50 worked out at 60 nM.
As to `COc1ccc(CCNC(=O)NC(=O)c2ccc(O)cc2)cc1` [SW208565-1-A], the IC50 amounted to 2750 nM.
In the case of `COc1ccc(CCNC(=O)N(C)C(=O)c2ccc(C(=O)c3ccccc3)cc2)cc1` [SW208566-1-A], the IC50 came to 7760 nM.
Same read-out and setting: as for `COc1ccc(CCN(C)C(=O)N(C)C(=O)c2ccc(C(=O)c3ccccc3)cc2)cc1` [SW208567-1-A], the figure is 8000 nM; as for `COc1cccc(C(=O)c2ccc(C(=O)NC(=O)NCCc3ccc(O)cc3)cc2)c1` [SW208579-1-A], 460 nM; as for `COc1ccccc1C(=O)c1ccc(C(=O)NC(=O)NCCc2ccc(O)cc2)cc1` [SW208580-1-A], 8080 nM.
